This is an account of results in US20080181971A1, “Combination Cancer Treatments Comprising Elsamitrucin and Other Agents” (priority 2007, published 2008).

Type in all cases: cell-based
For assay [1], the system named is SKMES human non-small cell lung carcinoma cell line. As to the kind of experiment: MTT growth inhibition assay, single agents and fixed-ratio combinations with elsamitrucin (Chou-Talalay, CalcuSyn), SKMES. The note with it: Homo sapiens. How it is done: (§1) These individual agents and their combinations were evaluated for in vitro activity against the HT29 colon carcinoma, SKMES non-small cell lung carcinoma, and Daudi B-lymphoblastic cell lines. Cell growth in 96-well microculture plates was determined with a semi-automated MTT assay. Efficacies of drug combinations were analyzed according to the methods of Chou and Talalay, utilizing CalcuSyn software. Twenty-one in vitro experiments were conducted to determine the individual and combined growth inhibitory activities of elsamitrucin and the ten selected agents in the three cell lines.
(§2) b. Cell Lines. The human HT29 colon carcinoma, SKMES non-small cell lung carcinoma, and Daudi B-lymphoblastic cell lines were originally obtained from ATCC (American Type Culture Collection). These cell lines have been maintained and stored as frozen stocks. […] The medium for Daudi cells was additionally supplemented with 1 mM sodium pyruvate.
(§3) c. Growth Inhibition Assay. Anti-proliferative activities against the HT29, SKMES, and Daudi cell lines were evaluated in vitro by the MTT assay. Cells (1,500-2,000 cells/well) were seeded in a 96-well microculture plate in 180 pL of medium/well. […] DMSO was present in all wells at a final concentration of 0.1%. […] When the appropriate cell density was attained in the control wells, the plates were centrifuged briefly, and 100 pL of the growth medium was removed. The cell cultures were incubated with 50 μL of MTT reagent (1 mg/mL in Dulbecco's phosphate-buffered saline) for 4 hr at 37° C. The resultant purple formazan precipitate was solubilized with 200 μL of 0.04 N HCl in isopropanol.
(§4) The results of each experiment were stored in Excel format.
(§5) d. Preliminary Experiments: Design and Data Analysis. […] The initial experiments utilized serial three-fold dilutions of the drugs to produce ten test concentrations over a broad concentration range. Based on the initial results, a narrower concentration range was selected, and serial 1:1.5 dilutions were utilized to produce ten test concentrations. Experiments were repeated as needed.
(§6) For assays that utilized lower dilution factors to produce narrower concentration ranges, the results were analyzed with both Prism and CalcuSyn (as described below) to allow comparison of the IC50 and Da, values. The results guided the selection of appropriate concentration ranges and concentration ratios for the combination experiments.
(§7) e. Combination Experiments: Design and Data Analysis. The fixed-ratio design of Chou was used for the combination experiments. For each experiment, the drug solutions were mixed at a ratio that was expected to provide approximately equipotent concentrations, and the mixture was serially diluted with medium containing 1% DMSO to yield 10× stock solutions of the test concentrations. […] Each agent was tested individually and in combination at seven concentrations. The concentration range selected for each assay was designed to bracket the concentrations that produced half-maximal effects (ED50) with each single agent and their mixture. The concentrations used for the single-drug assays were twice as high as their concentrations in the mixture. Each assay was performed in quadruplicate. For each drug combination, the individual agents and their mixture were assayed on the same 96-well plate. The effects of the individual drugs and their combinations were analyzed by the method of Chou and Talalay. The results of each experiment were entered into CalcuSyn (BIOSOFT) for dose-effect analysis.
(§8) where Acontrol and Adrug are the respective absorbances of vehicle control and drug-treated wells in the MIT assay.
(§9) where the slope, m, is related to the sigmoidicity of the dose-effect curve, with m=1, >1, and <1 indicating hyperbolic, sigmoidal, and reverse sigmoidal shapes, respectively.

The test system of assay [2] is Daudi human lymphoma cell line. As to the kind of experiment: MTT growth inhibition assay, single agents and fixed-ratio combinations with elsamitrucin (Chou-Talalay, CalcuSyn), Daudi. The note with it: Homo sapiens, Daudi. As to the method: as §1, §2, §3, §4, §5, §6, §7, §8, §9
Assay [3] deals with HT29 human colon carcinoma cell line. As to the kind of experiment: MTT growth inhibition assay, single agents and fixed-ratio combinations with elsamitrucin (Chou-Talalay, CalcuSyn), HT29. As to the method: as §1, §2, §3, §4, §5, §6, §7, §8, §9
Setting [4] is: SKMES growth inhibition, second agent alone, one value per plate (Experiment ID), read-out: Dm Value (95% Confidence Interval), Individually, Second Agent.
Setting [5] is: SKMES, single agent on the same plate as the combination, read-out: Dm Value, Individually, Second Agent.
[6] abbreviates: SPA-02 (SKMES-e22), single agent, dilution 1:3, read-out: Prism IC50.
Where [7] appears, read: SPA-03 (SKMES-e23), single agent, dilution 1:1.5, read-out: CalcuSyn Dm.
The mark [8] stands for this setting: SPA-03 (SKMES-e23), single agent, dilution 1:1.5, read-out: Prism IC50.
Where [9] appears, read: average of preliminary single-agent experiments, SKMES, read-out: Average IC50, Dm value.
Where [10] appears, read: Daudi growth inhibition, second agent alone, one value per plate, Table 8 (Supplement), read-out: Dm Value (95% Confidence Interval), Individually, Second Agent.
Setting [11] is: Daudi growth inhibition, second agent alone, Table 8, read-out: Dm Value (95% Confidence Interval), Individually, Second Agent.
Setting [12] is: SPA-05 (Daudi-e01), single agent, dilution 1:3, read-out: Prism IC50.
The mark [13] stands for this setting: SPA-08 (Daudi-e02), single agent, dilution 1:1.5, read-out: CalcuSyn Dm.
[14] abbreviates: SPA-08 (Daudi-e02), single agent, dilution 1:1.5, read-out: Prism IC50.
The mark [15] stands for this setting: average of preliminary single-agent experiments, read-out: Average IC50, Dm value.
[16] abbreviates: read-out: approximate Dm values for the second drugs as single agents.
Where [17] appears, read: Homo sapiens, HT-29, SPA-01 (HT29-e21), single agent, dilution 1:3, read-out: Prism IC50.
The mark [18] stands for this setting: Homo sapiens, HT-29, SPA-04 (HT29-e22), single agent, dilution 1:1.5, read-out: CalcuSyn Dm.
[19] abbreviates: Homo sapiens, HT-29, SPA-04 (HT29-e22), single agent, dilution 1:1.5, read-out: Prism IC50.
Setting [20] is: Homo sapiens, HT-29, average of preliminary single-agent experiments, HT29, read-out: Average IC50, Dm value.

Structures are written as SMILES. Like-named read-outs stand apart in the source and are kept apart here.

For `COc1cc([C@@H]2c3cc4c(cc3[C@@H](O[C@@H]3O[C@@H]5CO[C@@H](C)O[C@H]5[C@H](O)[C@H]3O)[C@H]3COC(=O)[C@H]23)OCO4)cc(OC)c1O` [Etoposide, etoposide], the IC50 in assay [1] (setting [4]) was 237 nM; in assay [1] (setting [5]), 237 nM; in assay [1] (setting [6]), 199 nM; in assay [1] (setting [7]), 317 nM; in assay [1] (setting [8]), 287 nM; in assay [1] (setting [9]), 268 nM. The IC50 in assay [2] (setting [10]) was 47 nM; in assay [2] (setting [11]), 47 nM; in assay [2] (setting [12]), 20.2 nM; in assay [2] (setting [13]), 23 nM; in assay [2] (setting [14]), 31 nM; in assay [2] (setting [15]), 25 nM. The IC50 is ~47 nM in assay [2] (setting [16]); 710 nM in assay [3] (Homo sapiens, HT-29, HT29, single agent on the same plate as the combination, read-out: Dm Value, Individually, Second Agent); ~900 nM in assay [3] (setting [17]); 766 nM in assay [3] (setting [18]); 698 nM in assay [3] (setting [19]); 732 nM in assay [3] (setting [20]).

As to `O=c1[nH]cc(F)c(=O)[nH]1` [5-Fluorouracil, 5-fluorouracil], the IC50 in assay [1] (setting [4]) was 4350 nM; in assay [1] (setting [5]), 4350 nM; in assay [1] (setting [6]), 438 nM; in assay [1] (setting [7]), 5200 nM; in assay [1] (setting [8]) it was ~3300 nM; in assay [1] (SPA-09 (SKMES-e25), single agent, dilution 1:1.5, read-out: CalcuSyn Dm) it was 5580 nM. The IC50 in assay [1] (SPA-09 (SKMES-e25), single agent, dilution 1:1.5, read-out: Prism IC50) was 3130 nM; in assay [1] (setting [9]) it was 3590 nM; in assay [2] (setting [10]), 11700 nM; in assay [2] (setting [11]), 11700 nM; in assay [2] (setting [12]), ~9200 nM; in assay [2] (setting [13]) it was 11100 nM. Besides, the IC50 in assay [2] (setting [14]) was 12700 nM; in assay [2] (SPA-15 (Daudi-e03), single agent, dilution 1:1.5 (elsamitrucin 1:1.33), read-out: CalcuSyn Dm), 13200 nM; in assay [2] (SPA-15 (Daudi-e03), single agent, dilution 1:1.5 (elsamitrucin 1:1.33), read-out: Prism IC50) it was 11900 nM; in assay [2] (setting [15]), 12200 nM; in assay [2] (setting [16]), ~11700 nM; in assay [3] (HT29, single agent on the same plate as the combination, read-out: Dm Value, Individually, Second Agent), 786 nM. Besides, the IC50 was ~3300 nM in assay [3] (setting [17]); 134 nM in assay [3] (setting [18]); 280 nM in assay [3] (setting [19]); 4200 nM in assay [3] (Homo sapiens, HT-29, SPA-10 (HT29-e24), single agent, dilution 1:1.5, read-out: CalcuSyn Dm); 1650 nM in assay [3] (Homo sapiens, HT-29, SPA-10 (HT29-e24), single agent, dilution 1:1.5, read-out: Prism IC50); 2040 nM in assay [3] (setting [20]). In addition, the “change of Dm in the mixture versus single agent” value in assay [3] (HT29) is reported as “increased only slightly”.
